Assay results published in US9446029B2, “Use of NK-1 receptor antagonists in management of visceral pain” (priority 2010, dated 2016).
Like-named read-outs stand apart in the source and are kept apart here.

Assays:
dogs [1] = details: cited from earlier work
dogs [2] = experiment: Sevoflurane MAC reduction by I.V. maropitant during ovarian ligament stimulation in dogs (Example 1); format: in vivo, dog; details: for MAC Reduction (%, mean ± SD): sevoflurane, ovarian ligament stimulation
Description: The NK1 receptor antagonist maropitant, available as […]® from Pfizer, is an antiemetic approved for use in dogs. The ability of maropitant to impact the sevoflurane minimum alveolar concentration (MAC) level needed for surgery was tested in canine subjects. The eight animals were 1 year old, intact female, Walker hound mix. A first group was administered 1 mg/kg maropitant, I.V. over 5 minutes then 30 μg/kg/h. A second group was administered 5 mg/kg maropitant, I.V. over 5 minutes then 150 μg/kg/h. General anesthesia was induced using sevoflurane as described below and otherwise according to standard veterinary procedure. Animals were maintained in dorsal recumbency. MAC reduction effect was tested by stimulation of the ovarian ligament. Ovariectomy was performed on each animal at the end of the study. In each animal, sterile laparoscopy was performed to access the right ovary. Following thirty minutes of sevoflurane at steady state, end-tidal sevoflurane concentration was measured with a calibrated agent analyzer (Biochem). […] Esophageal temperature was 37.5-39° C. Ovarian ligament stimulation was performed using 6.61 Newton's of force with a calibrated grass force displacement transducer. FIG. 1 is a bar graph comparing the MAC reduction using I.V. maropitant during […] anesthesia. The observed MAC reduction is reported at sea level (mean±SD), and compared to published results for other MAC reduction agents in Table 1.

cats = experiment: Sevoflurane MAC during ovarian ligament stimulation in cats (Example 3); format: in vivo, cat; details: for sevoflurane anesthetic requirement MAC (mean±SD): ovarian ligament stimulation, control MAC 2.96±0.32%
Description: Ten (10) female cats were anesthetized with sevoflurane. Following stabilization, the right ovarian ligament was accessed using a laparoscopic approach to determine the anesthetic minimum alveolar concentration (MAC). The ovarian ligament was stimulated using 500 grams of traction force. The MAC is reported as mean±SD, adjusted for calibration values and to sea-level. The anesthetic requirement MAC during stimulation of the ovary was 2.96±0.32%.

dogs [3] = experiment: Clinical trial of analgesia and comfort in dogs during and after spay surgery (laparotomy ovariohysterectomy), isoflurane anesthesia (Example 2); design: dogs showing overt signs of nausea after surgery: dose or concentration left out as unconfirmed; details: for Post-Operative Carprofen Rescue Analgesia (4 mg/kg, IV): dogs requiring a rescue dose: recovery period; for pain assessment, Visual Analogue Pain Scale (0-10), compared to control group: three hours following recovery from anesthesia, FIG. 6
[4] = maropitant 1 mg/kg SQ or morphine 0.5 mg/kg SQ before anesthesia

SMILES: Cc1cccc([C@H](C)c2cnc[nH]2)c1C [Dexmedetomidine]
- MAC Reduction (%, mean ± SD) (dogs [1]; dexmedetomidine 0.5 μg/kg, 0.5 μg/kg/h, isoflurane, Pascoe et al., 2006): 18%
- MAC Reduction (%, mean ± SD) (dogs [1]; dexmedetomidine 3 μg/kg, 3 μg/kg/h, isoflurane, Pascoe et al., 2006): 59%

SMILES: CNC1(c2ccccc2Cl)CCCCC1=O (centres unmarked) [Ketamine]
- MAC Reduction (%, mean ± SD) (dogs [1]; dog, in vivo): 47%

SMILES: COc1ccc(C(C)(C)C)cc1CN[C@H]1C2CCN(CC2)[C@@H]1C(c1ccccc1)c1ccccc1 [Maropitant, (7R,8S)—N-[(5-tert-Butyl-2-methoxyphenyl)methyl]-7-[di(phenyl)methyl]-1-azabicyclo[2.2.2]octan-8-amine]
- MAC Reduction (%, mean ± SD) (dogs [2]; maropitant 1 mg/kg I.V. over 5 minutes then 30 μg/kg/h): 24%
- MAC Reduction (%, mean ± SD) (dogs [2]; maropitant 5 mg/kg I.V. over 5 minutes then 150 μg/kg/h): 30%
- increase of the pain threshold during anesthesia (dogs [2]; summary of Example 1 (1 and 5 mg/kg)): 24-30%
- decrease of anesthetic requirement MAC (cats; higher maropitant dose IV): 17%
- sevoflurane anesthetic requirement MAC (mean±SD) (cats; higher maropitant dose IV): 2.45±0.43%
- sevoflurane anesthetic requirement MAC (mean±SD) (cats; maropitant 1 mg/kg IV, 500 grams traction): 2.50±0.33%
- decrease of anesthetic requirement MAC (cats; maropitant 1 mg/kg IV, p<0.01): 15%
- average heart rate throughout surgery (dogs [3]; [4]): 103±20 beats per minute
- average respiratory rate throughout surgery (dogs [3]; [4]): 21±12 breaths per minute
- dogs that started eating within 3 hours following surgery (dogs [3]; [4]): 65%
- subjects responding with panting during surgical painful stimulation (dogs [3]; [4]): 35%
- isoflurane anesthesia required during ovary ligation and resection (vaporizer setting) (dogs [3]; maropitant 1 mg/kg SQ or morphine 0.5 mg/kg SQ before anesthesia, FIG. 2): 1.41±0.25%
- isoflurane anesthesia required during skin closure (dogs [3]; maropitant 1 mg/kg SQ or morphine 0.5 mg/kg SQ before anesthesia, end of surgery, FIG. 4): 1.26±0.19%
- Post-Operative Carprofen Rescue Analgesia (4 mg/kg, IV): dogs requiring a rescue dose (dogs [3]; [4]): 18%
- Post-Operative Carprofen Rescue Analgesia (4 mg/kg, IV): dogs requiring a rescue dose (dogs [3]; maropitant 1 mg/kg SQ or morphine 0.5 mg/kg SQ before anesthesia, listed as maropitant): 18%
- pain assessment, Visual Analogue Pain Scale (0-10), compared to control group (dogs [3]): showed fewer overt signs of pain and discomfort

SMILES: Oc1ccc2c(c1)[C@@]13CCCC[C@@]1(O)[C@@H](C2)N(CC1CCC1)CC3 [Butorphanol]
- MAC Reduction (%, mean ± SD) (dogs [1]; dog, in vivo): 8%

SMILES: CN1CC[C@]23c4c5ccc(O)c4O[C@H]2[C@@H](O)C=C[C@H]3[C@H]1C5 [Morphine, morphine]
- MAC Reduction (%, mean ± SD) (dogs [1]; dog, in vivo): 35, 39%
- dogs showing overt signs of nausea after surgery (dogs [3]; before anesthesia): 31%
- average heart rate throughout surgery (dogs [3]; [4]): 115±23 beats per minute
- average respiratory rate throughout surgery (dogs [3]; [4]): 27±20 breaths per minute
- dogs that started eating within 3 hours following surgery (dogs [3]; [4]): 26%
- dogs whose esophageal pH decreased below 5 during surgery (gastric regurgitation) (dogs [3]; [4]): 29%
- subjects responding with panting during surgical painful stimulation (dogs [3]; [4]): 38%
- Post-Operative Carprofen Rescue Analgesia (4 mg/kg, IV): dogs requiring a rescue dose (dogs [3]; [4]): 30%
- Post-Operative Carprofen Rescue Analgesia (4 mg/kg, IV): dogs requiring a rescue dose (dogs [3]; maropitant 1 mg/kg SQ or morphine 0.5 mg/kg SQ before anesthesia, listed as morphine): 30%
- pain assessment, Visual Analogue Pain Scale (0-10), compared to control group (dogs [3]): only through the initial two hours of assessment

SMILES: CC(=O)c1ccc2c(c1)N(CCCN(C)C)c1ccccc1S2 [Acepromazine]
- MAC Reduction (%, mean ± SD) (dogs [1]; acepromazine 0.04 mg/kg, halothane, Heard et al., 1986): 40%

SMILES: Cc1cnc(NC(=O)C2=C(O)c3ccccc3S(=O)(=O)N2C)s1 [Meloxciam]
- MAC Reduction (%, mean ± SD) (dogs [1]; meloxicam 0.2 mg/kg, sevoflurane, Yamashita et al., 2008): 23%

SMILES: CCN(CC)CC(=O)Nc1c(C)cccc1C [Lidocaine]
- MAC Reduction (%, mean ± SD) (dogs [1]; lidocaine 2 mg/kg, 50 μg/kg/min, isoflurane, Valverde et al., 2004): 19%
- MAC Reduction (%, mean ± SD) (dogs [1]; lidocaine 2 mg/kg, 200 μg/kg/min, isoflurane, Valverde et al., 2004): 43%

SMILES: CC(C(=O)O)c1ccc2c(c1)[nH]c1ccc(Cl)cc12 (centres unmarked) [Carprofen]
- MAC Reduction (%, mean ± SD) (dogs [1]; carprofen 4 mg/kg, sevoflurane, Yamashita et al., 2008): 12%
